Laboratory results published in patent publication US8686150B2 (Sanofi, priority 2011, dated 2014).

Biological target: T1, human full-length recombinant PKC βII (Homo sapiens, UniProt P05771)
T1 construct: Active human full-length recombinant PKC βII; purchased Invitrogen GmbH, Darmstadt, Germany
Test: Determination of PKC βII inhibition (Caliper mobility-shift kinase assay, Fluorescein-RFARKGSLRQKNV peptide substrate)
Assay type: biochemical
Conditions: example compounds at a final concentration of 1.14 μM (±0.15 μM)
Method in brief: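 Compounds were tested at 1.14 μM final. Enzyme was activated by PS, DAG and CaCl2 in Hepes pH 7.4 with MgCl2, with substrate 3 μM and ATP 120 μM as pre-mix concentrations. After 60 min at 32 °C and an EDTA stop, Caliper separation gave fractional turnover, which was normalised to no-compound and no-enzyme controls.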

T1 sequence (P05771 1-673 isoform P05771-2): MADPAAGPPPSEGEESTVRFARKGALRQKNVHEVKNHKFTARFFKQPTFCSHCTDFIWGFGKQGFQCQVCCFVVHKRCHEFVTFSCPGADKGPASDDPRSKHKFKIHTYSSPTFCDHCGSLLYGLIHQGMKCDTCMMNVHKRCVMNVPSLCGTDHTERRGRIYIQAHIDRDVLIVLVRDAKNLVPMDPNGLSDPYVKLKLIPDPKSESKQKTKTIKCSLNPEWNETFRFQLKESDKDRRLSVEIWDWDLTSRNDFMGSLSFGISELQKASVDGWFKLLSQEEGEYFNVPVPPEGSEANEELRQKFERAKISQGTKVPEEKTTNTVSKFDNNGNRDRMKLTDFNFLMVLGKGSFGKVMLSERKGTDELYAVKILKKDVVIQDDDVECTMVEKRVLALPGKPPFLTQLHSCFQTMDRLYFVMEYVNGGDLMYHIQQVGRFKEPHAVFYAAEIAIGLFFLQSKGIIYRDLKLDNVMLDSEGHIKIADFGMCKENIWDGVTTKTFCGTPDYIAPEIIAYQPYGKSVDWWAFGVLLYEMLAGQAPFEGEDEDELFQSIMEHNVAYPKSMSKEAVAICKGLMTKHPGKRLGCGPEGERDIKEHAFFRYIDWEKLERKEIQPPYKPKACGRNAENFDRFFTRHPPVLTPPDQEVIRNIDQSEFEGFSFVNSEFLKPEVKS

| Structure (SMILES) | inhibition at 1.14 µM | % Inhibition |
| --- | --- | --- |
| Cc1n[nH]c2nc(-c3ccc(O)cc3)cc(C(=O)NC3CC4CC3CN4)c12 (centres unmarked) [Example 193, 6-(4-Hydroxy-phenyl)-3-methyl-1H-pyrazolo[3,4-b]pyridine-4-carboxylic acid (2-aza-bicyclo[2.2.1]hept-5-yl)-amide] | 94% | – |
| Cc1n[nH]c2nc(-c3ccc(O)cc3)cc(C(=O)N3CCN[C@@H](C(C)C)C3)c12 [Example 233, [6-(4-Hydroxy-phenyl)-3-methyl-1H-pyrazolo[3,4-b]pyridin-4-yl]-((S)-3-isopropyl-piperazin-1-yl)-methanone] | 95% | – |
| Cc1n[nH]c2nc(-c3ccc(O)cc3)cc(C(=O)NCC(C)N3CCCC3)c12 (centres unmarked) [Example 389, 6-(4-Hydroxy-phenyl)-3-methyl-1H-pyrazolo[3,4-b]pyridine-4-carboxylic acid (2-pyrrolidin-1-yl-propyl)-amide] | 65% | – |
| Cc1n[nH]c2nc(-c3ccc(O)cc3)cc(C(=O)N3CCN[C@@H](CC(C)C)C3)c12 [Example 215, [6-(4-Hydroxy-phenyl)-3-methyl-1H-pyrazolo[3,4-b]pyridin-4-yl]-((S)-3-isobutyl-piperazin-1-yl)-methanone] | 99% | – |
| Cc1n[nH]c2nc(-c3ccc(O)c(F)c3)cc(C(=O)NC3CC4CCC(C3)N4C)c12 [Example 318, 6-(3-Fluoro-4-hydroxy-phenyl)-3-methyl-1H-pyrazolo[3,4-b]pyridine-4-carboxylic acid (3R)-8-methyl-8-aza-bicyclo[3.2.1]oct-3-yl)-amide] | – | 61% |
| CC[C@H]1CN(C(=O)c2cc(-c3ccc(O)cc3)nc3[nH]nc(C)c23)CCN1 [Example 210, ((S)-3-Ethyl-piperazin-1-yl)-[6-(4-hydroxy-phenyl)-3-methyl-1H-pyrazolo[3,4-b]pyridin-4-yl]-methanone] | 100% | – |
| Cc1n[nH]c2nc(-c3ccc(O)cc3F)cc(C(=O)N3CCNC(C)(C)C3)c12 [Example 425, (3,3-Dimethyl-piperazin-1-yl)-[6-(2-fluoro-4-hydroxy-phenyl)-3-methyl-1H-pyrazolo[3,4-b]pyridin-4-yl]-methanone] | 88% | – |
| Cc1n[nH]c2nc(-c3ccc(O)cc3)cc(C(=O)NCCN(C)C)c12 [Example 38, 6-(4-Hydroxy-phenyl)-3-methyl-1H-pyrazolo[3,4-b]pyridine-4-carboxylic acid (2-dimethylamino-ethyl)-amide] | 80% | – |
| Cc1n[nH]c2nc(-c3ccc(O)cc3)cc(C(=O)N3CCNC[C@@H]3C)c12 [Example 188, [6-(4-Hydroxy-phenyl)-3-methyl-1H-pyrazolo[3,4-b]pyridin-4-yl]-((S)-2-methyl-piperazin-1-yl)-methanone] | 105% | – |
| Cc1n[nH]c2nc(-c3ccc(O)c(F)c3)cc(C(=O)N3CC4(CCNCC4)C3)c12 [Example 339, (2,7-Diaza-spiro[3.5]non-2-yl)-[6-(3-fluoro-4-hydroxy-phenyl)-3-methyl-1H-pyrazolo[3,4-b]pyridin-4-yl]-methanone] | 73% | – |
| CCc1n[nH]c2nc(-c3ccc(O)cc3)cc(C(=O)N3CCC4(CC3)CNC4)c12 [Example 171, (2,7-Diaza-spiro[3.5]non-7-yl)-[3-ethyl-6-(4-hydroxy-phenyl)-1H-pyrazolo[3,4-b]pyridin-4-yl]-methanone] | 77% | – |
| CCCC1(NC(=O)c2cc(-c3ccc(O)cc3)nc3[nH]nc(C)c23)CCCNC1 (centres unmarked) [Example 124, 6-(4-Hydroxy-phenyl)-3-methyl-1H-pyrazolo[3,4-b]pyridine-4-carboxylic acid (3-propyl-piperidin-3-yl)-amide] | 78% | – |
| Cc1n[nH]c2nc(-c3ccc(O)cc3F)cc(C(=O)N3C[C@@H](c4ccccc4)NC[C@@H]3C)c12 (relative stereo) [Example 447, [6-(2-Fluoro-4-hydroxy-phenyl)-3-methyl-1H-pyrazolo[3,4-b]pyridin-4-yl]-(trans-2-methyl-5-phenyl-piperazin-1-yl)-methanone] | 83% | – |
| Cc1n[nH]c2nc(-c3ccc(O)cc3)cc(C(=O)N3CCC(N)CC3)c12 [Example 249, (4-Amino-piperidin-1-yl)-[6-(4-hydroxy-phenyl)-3-methyl-1H-pyrazolo[3,4-b]pyridin-4-yl]-methanone] | 82% | – |
| CCc1n[nH]c2nc(-c3ccc(O)cc3)cc(C(=O)NC3CNC3)c12 [Example 183, 3-Ethyl-6-(4-hydroxy-phenyl)-1H-pyrazolo[3,4-b]pyridine-4-carboxylic acid azetidin-3-ylamide] | 67% | – |
| Cc1n[nH]c2nc(-c3ccc(O)c(F)c3)cc(C(=O)N3CCC4(CCNC4)C3)c12 (centres unmarked) [Example 340, (2,7-Diaza-spiro[4.4]non-2-yl)-[6-(3-fluoro-4-hydroxy-phenyl)-3-methyl-1H-pyrazolo[3,4-b]pyridin-4-yl]-methanone] | 67% | – |

| Structure (SMILES) | inhibition at 1.14 µM | % Inhibition |
| --- | --- | --- |
| Cc1n[nH]c2nc(-c3ccc(O)cc3)cc(C(=O)N3CCN(C4CCC4)CC3)c12 [Example 39, (4-Cyclobutyl-piperazin-1-yl)-[6-(4-hydroxy-phenyl)-3-methyl-1H-pyrazolo[3,4-b]pyridin-4-yl]-methanone] | 45% | – |
| Cc1n[nH]c2nc(-c3ccc(O)cc3)cc(C(=O)N3CCNCC3c3ccc(Cl)c(Cl)c3)c12 (centres unmarked) [Example 29, [2-(3,4-Dichloro-phenyl)-piperazin-1-yl]-[6-(4-hydroxy-phenyl)-3-methyl-1H-pyrazolo[3,4-b]pyridin-4-yl]-methanone] | 99% | – |
| Cc1n[nH]c2nc(-c3ccc(O)cc3)cc(C(=O)NC3CCCN(C)C3)c12 (centres unmarked) [Example 275, 6-(4-Hydroxy-phenyl)-3-methyl-1H-pyrazolo[3,4-b]pyridine-4-carboxylic acid (1-methyl-piperidin-3-yl)-amide] | 89% | – |
| Cc1n[nH]c2nc(-c3ccc(O)c(F)c3)cc(C(=O)N3CC(N)C3)c12 [Example 315, (3-Amino-azetidin-1-yl)-[6-(3-fluoro-4-hydroxy-phenyl)-3-methyl-1H-pyrazolo[3,4-b]pyridin-4-yl]-methanone] | 62% | – |
| CCC[C@H]1CN(C(=O)c2cc(-c3ccc(O)c(F)c3)nc3[nH]nc(C)c23)CCN1 [Example 293, [6-(3-Fluoro-4-hydroxy-phenyl)-3-methyl-1H-pyrazolo[3,4-b]pyridin-4-yl]-((S)-3-propyl-piperazin-1-yl)-methanone] | 89% | – |
| Cc1n[nH]c2nc(-c3ccc(O)cc3F)cc(C(=O)NCC3(N)CCCCCC3)c12 [Example 61, 6-(2-Fluoro-4-hydroxy-phenyl)-3-methyl-1H-pyrazolo[3,4-b]pyridine-4-carboxylic acid (1-amino-cycloheptylmethyl)-amide] | 92% | – |
| Cc1n[nH]c2nc(-c3ccc(O)c(F)c3)cc(C(=O)N3CCC4(CCNCC4)C3)c12 [Example 343, (2,8-Diaza-spiro[4.5]dec-2-yl)-[6-(3-fluoro-4-hydroxy-phenyl)-3-methyl-1H-pyrazolo[3,4-b]pyridin-4-yl]-methanone] | 49% | – |
| O=C(c1cc(-c2ccc(O)cc2)nc2[nH]nc(C(F)(F)F)c12)N1CCC2(CCNC2)CC1 [Example 410, (2,8-Diaza-spiro[4.5]dec-8-yl)-[6-(4-hydroxy-phenyl)-3-trifluoromethyl-1H-pyrazolo[3,4-b]pyridin-4-yl]-methanone] | 20% | – |
| Cc1n[nH]c2nc(-c3ccc(O)cc3F)cc(C(=O)N3C[C@@H](C)N(CC4CCOC4)C[C@@H]3C)c12 (stereo partly drawn) [Example 455, [(2S,5R)-2,5-Dimethyl-4-(tetra-hydro-furan-3-ylmethyl)-piperazin-1-yl]-[6-(2-fluoro-4-hydroxy-phenyl)-3-methyl-1H-pyrazolo[3,4-b]pyridin-4-yl]-methanone] | 92% | – |
| CCc1n[nH]c2nc(-c3ccc(O)cc3)cc(C(=O)NC3CC4CCC(C3)N4C)c12 (centres unmarked) [Example 163, 3-Ethyl-6-(4-hydroxy-phenyl)-1H-pyrazolo[3,4-b]pyridine-4-carboxylic acid (8-methyl-8-aza-bicyclo[3.2.1]oct-3-yl)-amide] | 57% | – |
| Cc1n[nH]c2nc(-c3ccc(O)cc3)cc(C(=O)N3CCOC4(CCCNC4)C3)c12 (centres unmarked) [Example 258, [6-(4-Hydroxy-phenyl)-3-methyl-1H-pyrazolo[3,4-b]pyridin-4-yl]-(1-oxa-4,8-diaza-spiro[5.5]undec-4-yl)-methanone] | 78% | – |
| Cc1n[nH]c2nc(-c3ccc(O)c(F)c3)cc(C(=O)N3CCNCC3c3cccnc3)c12 (centres unmarked) [Example 327, [6-(3-Fluoro-4-hydroxy-phenyl)-3-methyl-1H-pyrazolo[3,4-b]pyridin-4-yl]-(2-pyridin-3-yl-piperazin-1-yl)-methanone] | 92% | – |
| Cc1n[nH]c2nc(-c3ccc(O)cc3)cc(C(=O)N3CCC(C)(N)C3)c12 (centres unmarked) [Example 122, (3-Amino-3-methyl-pyrrolidin-1-yl)-[6-(4-hydroxy-phenyl)-3-methyl-1H-pyrazolo[3,4-b]pyridin-4-yl]-methanone] | 89% | – |
| Cc1n[nH]c2nc(-c3ccc(O)cc3)cc(C(=O)N3CCNC(c4ccccc4)C3)c12 (centres unmarked) [Example 25, [6-(4-Hydroxy-phenyl)-3-methyl-1H-pyrazolo[3,4-b]pyridin-4-yl]-(3-phenyl-piperazin-1-yl)-methanone] | 89% | – |
| Cc1n[nH]c2nc(-c3ccc(O)cc3)cc(C(=O)N3CCC(CN)(c4ccccc4)CC3)c12 [Example 34, (4-Aminomethyl-4-phenyl-piperidin-1-yl)-[6-(4-hydroxy-phenyl)-3-methyl-1H-pyrazolo[3,4-b]pyridin-4-yl]-methanone] | 69% | – |
| CCc1n[nH]c2nc(-c3ccc(O)cc3)cc(C(=O)NC3CN4CCC3CC4)c12 (centres unmarked) [Example 159, 3-Ethyl-6-(4-hydroxy-phenyl)-1H-pyrazolo[3,4-b]pyridine-4-carboxylic acid (1-aza-bicyclo[2.2.2]oct-3-yl)-amide] | 55% | – |
